No end group written: not given here.
Experiments:
S. mutans biofilms = type: cell-based, Streptococcus mutans; settings: S. mutans in BHI with 1% sucrose, 24 h anaerobic, CV staining, absorbance 590 nm
Protocol: CV was used to detect the effects of the peptides on the formation of biofilm and the eradication of mature biofilm. 100 μL of S. mutans in the logarithmic phase was diluted in BHI (containing 1% sucrose) to the concentration of 2 × 10^6 CFU/mL. The suspensions were added to the equal volume of the peptides (the final concentrations of 0.8–12.5 μM). After incubation at 37 °C under anaerobic conditions for 24 h, the supernatant was discarded. The plate was irrigated with PBS carefully to wash away the planktonic bacteria. After fixing with anhydrous methanol for 15 min, 0.5% CV was added to each well for staining the biofilms. The excess CV was washed away by PBS (pH 7.2), and the bound CV was dissolved with anhydrous methanol. A microplate reader (Multiskan Spectrum, BioTek, Winuski, VT, USA) was used to measure the absorbance value of 590 nm. MBIC50 was defined as the lowest peptide concentration that inhibited 50% of biofilm formation.

[1] = system: Staphylococcus aureus (ATCC 25923); type: cell-based
From the text: (§1) The strains were used in the experiments, including Gram-positive bacteria Staphylococcus aureus (ATCC 25923), Bacillus subtilis (ATCC 6633), Streptococcus mutans (ATCC 25175), Methicillin-resistant Staphylococcus aureus (ATCC 43300), Methicillin-resistant Staphylococcus aureus 1–3 (clinically isolated, number 1–3), Gram-negative bacteria Escherichia coli (ATCC 25922), E. coli (D 31), Pseudomonas aeruginosa (ATCC 15442), P. aeruginosa PAO1 (wild type), and the fungus Candida albicans (ATCC 10231). S. mutans was cultured in Brain Heart Infusion Broth (BHI, Beijing Land Bridge, China) under anaerobic condition; C. albicans was grown in Sabouraud Dextrose Broth (SDB, HuanKai Microbial, Guangzhou, China); and the other bacterial strains were grown in Tryptic Soy Broth (TSB, HuanKai Microbial, Guangzhou, China). All bacteria and fungi were cultivated to the logarithmic phase at 37 °C before experiments were performed.
(§2) The antimicrobial activities of the peptides were measured by the two-fold dilution method. Each strain was inoculated in the medium and cultivated to the logarithmic phase. A series of diluted peptides (concentrations of 3.1–100 μM, 50 μL) were prepared in a 96-well plate (Corning, New York, NY, USA), and the same volume of the bacterial suspension (the final concentration of 1 × 10^6 CFU/mL) was added. After incubation at 37 °C for 18–24 h, the absorbance at 600 nm was measured by using a microplate reader (Multiskan Spectrum, BioTek, Winuski, VT, USA). […] All tests were performed in triplicate independent experiments.
(§3) From the MIC measuring plates, 50 μL of bacteria suspension in the presence of peptides when the concentrations were equal and up to MICs was spread on the BHI agar medium, and incubated at 37 °C for 24 h. The peptide concentration with no bacterial growth was defined as MBC [33].

[2] = system: Pseudomonas aeruginosa (ATCC 15442); type: cell-based
From the text: as §1, §2, §3

[3] = system: Bacillus subtilis (ATCC 6633); type: cell-based
From the text: as §1, §2, §3

[4] = system: Streptococcus mutans (ATCC 25175); type: cell-based
From the text: as §1, §2, §3

[5] = system: Escherichia coli (ATCC 25922); type: cell-based
From the text: as §1, §2, §3

[6] = system: Candida albicans (ATCC 10231); type: cell-based
From the text: as §1, §2, §3

[7] = system: E. coli (D31), anti-streptomycin strain; type: cell-based, Escherichia coli; settings: 37 °C
From the text: as §1, §2, §3

[8] = system: MRSA-1, methicillin-resistant S. aureus (clinically isolated, No.1); type: cell-based, Staphylococcus aureus
From the text: as §1, §2, §3

[9] = system: MRSA-3, methicillin-resistant S. aureus (clinically isolated, No.3); type: cell-based, Staphylococcus aureus
From the text: as §1, §2, §3

[10] = system: MRSA-2, methicillin-resistant S. aureus (clinically isolated, No.2); type: cell-based, Staphylococcus aureus
From the text: as §1, §2, §3

[11] = system: methicillin-resistant S. aureus (ATCC 43300); type: cell-based, Staphylococcus aureus
From the text: as §1, §2, §3

[12] = system: Human red blood cells (hRBCs); type: cell-based
Protocol: The hemolytic toxicity of the peptides was determined as described. Human red blood cells (hRBCs) were washed with phosphate-buffered saline (PBS, pH 7.2) and centrifuged at 1000× g for 10 min at 4 °C until the supernatant was clear. 4% hRBCs and an equal volume of the peptides with different concentrations were incubated at 37 °C for 1 h. After incubation, the supernatant was collected by centrifugation, and 150 μL was transferred to a new 96-well plate (Corning, New York, NY, USA). The absorbance at 450 nm was measured. The 0.1% Triton X-100 was used as the positive control, and PBS was used as the negative control. The minimum hemolysis concentration (MHC) was defined as the lowest concentration of peptide that causes 10% hemolysis, and HL50 was the lowest concentration that causes 50% hemolysis. CSI was defined as the ratio of HL50 to MIC [31].

[13] = system: P. aeruginosa PAO1 (wild type); type: cell-based, Pseudomonas aeruginosa
From the text: as §1, §2, §3

[14] = system: S. mutans mature biofilms; experiment: Mature biofilm eradication, crystal violet; type: cell-based, Streptococcus mutans; settings: 24 h mature S. mutans biofilms, 24 h treatment, CV staining, absorbance 590 nm
Protocol: To evaluate the ability of the peptides to eradicate the mature biofilms of S. mutans, the bacteria (the final concentration of 1 × 10^6 CFU/mL) were seeded in a flat bottom 96-well plate for 24 h to obtain the mature biofilms. The planktonic bacteria were washed away, and the peptides with the concentrations of 3.1–50 μM were added. After treatment for 24 h, CV was used for staining and quantification as described above. The biofilms untreated with the peptides served as the negative control. MBEC50 was defined as the lowest peptide concentration that removed 50% of the mature biofilm.

In the case of FLQRIIGRLGRLF [GHaR8R], the time to complete eradication is reported as less than 15 min, the “MBIC50 (lowest peptide concentration that inhibited 50% of biofilm formation)” value (S. mutans biofilms) is reported as 1.6 µM and the MIC ([1]; ATCC 25923) is reported as 1.6 to 3.1 µM. For the same sequence, the MBC ([1]; ATCC 25923, 24 h) was 3.1 µM, the MIC ([2]; ATCC 15442) was 50 µM and the MBC ([2]; ATCC 15442, 24 h) was greater than 50 µM. For the same sequence, the MIC ([3]; ATCC 6633) was 12.5 µM, the MBC ([3]; ATCC 6633, 24 h) was 12.5 µM and the MIC ([4]; ATCC 25175) was 6.2 µM. It also gave an MBC ([4]; ATCC 25175, 24 h) of 6.2 µM, an MIC ([5]; ATCC 25922) of 3.1 µM and an MBC ([5]; ATCC 25922, 24 h) of 3.1 µM. For the same sequence, the MIC ([6]; ATCC 10231) was 12.5 µM, the MBC ([6]; ATCC 10231, 24 h) was 12.5 µM and the MIC ([7]; TSB, 1 × 10^6 CFU/mL, 18–24 h, absorbance 600 nm, triplicate, first value of cell) was 12.5 µM. It also gave an MBC ([7]; plated from MIC wells on agar, 24 h, no growth, second value of cell) of 25 µM, an MIC ([8]; -1, methicillin-resistant (clinically isolated, No.1)) of 6.2 µM and an MBC ([8]; -1, methicillin-resistant (clinically isolated, No.1, 24 h)) of 6.2 µM. The MIC ([9]; -3, methicillin-resistant (clinically isolated, No.3)) was 6.2 µM, the MBC ([9]; -3, methicillin-resistant (clinically isolated, No.3, 24 h)) was 12.5 µM and the MIC ([10]; -2, methicillin-resistant (clinically isolated, No.2)) was 3.1 µM. The MBC ([10]; -2, methicillin-resistant (clinically isolated, No.2, 24 h)) was 12.5 µM, the MIC ([11]; ATCC 43300) was 3.1 µM and the MBC ([11]; ATCC 43300, 24 h) was 3.1 µM. The “HL50 relative to that of GHaR” value [12] was 1–5 times higher, the MIC ([13]; PAO1) was 6.2 µM and the MBC ([13]; PAO1, 24 h) was 12.5 µM. The “MBEC50 (lowest peptide concentration that removed 50% of the mature biofilm)” value [14] was 12.5 µM.
